Data from ChEMBL document CHEMBL1147335, “New leukotriene B4 receptor antagonist: leucettamine A and related imidazole alkaloids from the marine sponge Leucetta microraphis” (J Nat Prod, 1993).

What was measured:
[1] = target: T1, Leukotriene B4 receptor 1 (Homo sapiens, UniProt Q15722); assay: Displacement of [3H]LTB4 from LTB4 receptor expressed in human U937 cell membrane; type: cell membranes, U-937
[2] = target: T1, Leukotriene B4 receptor 1; assay: Antagonist activity at LTB4 receptor in fura-2 loaded human U937 cells assessed as inhibition of LTB4-induced calcium mobilization; type: functional, cell-based, U-937
[3] = target: T1, Leukotriene B4 receptor 1; assay: Binding affinity to LTB4 receptor in human U937 cells by whole cell assay; type: cell-based, U-937

T1 sequence (Q15722 whole entry): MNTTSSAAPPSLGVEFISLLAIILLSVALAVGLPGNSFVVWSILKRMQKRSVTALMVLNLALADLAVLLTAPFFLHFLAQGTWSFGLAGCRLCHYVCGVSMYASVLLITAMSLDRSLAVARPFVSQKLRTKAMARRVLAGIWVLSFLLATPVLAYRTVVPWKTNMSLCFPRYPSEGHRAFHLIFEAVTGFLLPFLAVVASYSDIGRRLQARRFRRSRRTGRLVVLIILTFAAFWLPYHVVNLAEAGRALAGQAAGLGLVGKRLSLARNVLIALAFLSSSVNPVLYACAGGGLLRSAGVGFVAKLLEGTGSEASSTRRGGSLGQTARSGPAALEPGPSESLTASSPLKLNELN

| IC50 [1] [µM] | Ki [1] [µM] | IC50 [2] [µM] | IC50 [3] [µM] | SMILES |
| --- | --- | --- | --- | --- |
| 15.6 | 5.3 | – | – | CN1C(=N)N(C)/C(=N/c2nc(Cc3ccc4c(c3)OCO4)c(Cc3ccc4c(c3)OCO4)n2C)C1=O [LEUCETTAMIDINE] |
| 4 | 1.3 | 4.6 | 0.75 | Cn1c(N)nc(Cc2ccc3c(c2)OCO3)c1Cc1ccc2c(c1)OCO2 [LEUCETTAMINE A] |

| SMILES | IC50 [1] [µM] | Ki [1] [µM] | IC50 [2] [µM] | IC50 [3] [µM] |
| --- | --- | --- | --- | --- |
| CN1C(=O)/C(=C/c2ccc3c(c2)OCO3)N=C1N [LEUCETTAMINE B] | – | 100 | – | – |
